One assay deals with calvaria. The assay can be described thus: Calvarial assay of epoxomicin (Example 7), new bone area. It counts as cell-based, mouse. The procedure:
An assay for bone resorption or bone formation is similar to that described by Gowen M. & Mundy G., J Immunol (1986) 136:2478-82. Briefly, four days after birth, the front and parietal bones of ICR Swiss white mouse pups are removed by microdissection and split along the sagittal suture. In an assay for resorption, the bones are incubated in BGJb medium (Irvine Scientific, Santa Ana, Calif.) plus 0.02% (or lower concentration) β-methylcyclodextrin, wherein the medium also contains test or control substances. The medium used when the assay is conducted to assess bone formation is Fitton and Jackson Modified BGJ Medium (Sigma) supplemented with 6 μg/ml insulin, 6 μg/ml transferrin, 6 ng/ml selenous acid, calcium and phosphate concentrations of 1.25 and 3.0 mM, respectively, and ascorbic acid to a concentration of 100 μg/ml is added every two days. The incubation is conducted at 37° C. in a humidified atmosphere of 5% CO2 and 95% air for 96 hours.
New bone formation was determined (using a 10× objective) by measuring the new bone area formed in one field in 3 representative sections of each bone (4 bones per group). Each measurement was carried out ½ field distance from the end of the suture. Both total bone and old bone area were measured. Data were expressed as new bone area in μm^2.

In the next assay the target is T1, papain (Carica papaya, UniProt P00784).
T1 sequence (P00784 134-345): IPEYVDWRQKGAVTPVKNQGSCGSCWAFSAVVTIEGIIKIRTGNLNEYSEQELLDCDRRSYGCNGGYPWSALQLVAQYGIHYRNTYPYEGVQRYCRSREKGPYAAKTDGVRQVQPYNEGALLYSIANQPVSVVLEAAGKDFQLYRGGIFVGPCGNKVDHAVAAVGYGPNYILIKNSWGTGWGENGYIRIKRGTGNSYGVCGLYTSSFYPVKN
The note with it: cited from earlier work.

For a further assay, the system named is hair follicles. The assay can be described thus: Stimulation of hair growth after wax hair stripping, subcutaneous injection (Example 9). It is filed as in vivo, Male Swiss ICR mice. As to the method:
Male Swiss ICR mice were first treated to remove hair from the scalp and dorsal regions as follows. Paraffin wax was liquefied by heating to 55° C. and the liquefied wax then applied by brush to the scalp and/or back (under anesthesia). The wax was allowed to solidify and then removed. The day following hair stripping, PSI (1 mg/kg/day) was injected subcutaneously three times a day for five days into the scalp and dorsal region. […] The mice were sacrificed on day 21 and histology was performed on the dermis of the scalp and of the dorsal region. […] Upon closer examination, it was observed that mice that had received only vehicle had quiescent hair follicles.

Marks after values point to notes of the source that are not given here. Where a SMILES comes first, the peptide text is derived from it. The star is where a group is joined. Cbz = O=C(OCc1ccccc1)*; OtBu = CC(C)(C)O*

As to `CC[C@H](C)[C@H](NC(=O)[C@H]([C@@H](C)CC)N(C)C(C)=O)C(=O)N[C@H](C(=O)N[C@@H](CC(C)C)C(=O)[C@@]1(C)CO1)[C@@H](C)O` [Epoxomicin], in the assay on calvaria (concentrations of 5-10 nM), the “bone formed compared with control” value was “significantly more bone was formed than in the control”. The “New Bone Area” value in the assay on calvaria (dose 0.000625 μM) was 2.78 mm^2 × 10^−3; in the assay on calvaria (dose 0.00125 μM), 2.80 mm^2 × 10^−3; in the assay with calvaria (dose 0.0025 μM), 4.04 mm^2 × 10^−3; in the assay on calvaria (dose 0.005 μM), 6.54# mm^2 × 10^−3; in the assay on calvaria (dose 0.01 μM) it was 5.74# mm^2 × 10^−3. On papain, the “concentration up to which no inhibition appears” value is above 50 µM.

As to `CC[C@H](C)[C@H](NC(=O)OCc1ccccc1)C(=O)N[C@@H](CCC(=O)OC(C)(C)C)C(=O)N[C@@H](C)C(=O)N[C@H](C=O)CC(C)C` [PSI, N-carbobenzoyl-Ile-Glu-(OtBu)-Ala-Leu-CHO] (Cbz-IE(OtBu)AL-aldehyde), the “number of hair follicles versus control mice” value in the assay on hair follicles (1 mg/kg/day subcutaneously three times a day for five days, day 7 dermal punch biopsy) is reported as “large increase in the number of hair follicles”. Further, the hair growth rate result in the assay with hair follicles (1 mg/kg/day subcutaneously, by day 18) was “hair growth rate greater than that of the mice in the control group”. For the same molecule, the “mature hair follicles in the lower region of the dermis” value in the assay with hair follicles (1 mg/kg/day subcutaneously, day 21 histology) is on record as “mature hair follicles in numbers much greater than in controls”.

Values taken from US6838436B1, “Inhibitors of proteasomal activity for stimulating bone growth” (Osteoscreen Inc., priority 1998, dated 2005).
